Assay results reported in the supplement of paper PMC12317010.
Structures can show the parent of a compound that is named as a salt.

Experiment: collision cross section in nitrogen (drift tube, single-field); higher = larger gas-phase ion size
[1] = ion type: [M+Na], ion source: ESI, ion mode: Positive
[2] = ion type: [M-H], ion source: ESI, ion mode: Negative
[3] = ion type: [M+H], ion source: APCI, ion mode: Positive
[4] = ion type: [M+H], ion source: ESI, ion mode: Positive
[5] = ion type: [M+], ion source: APCI, ion mode: Positive
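Further: chemical standards at 10 µM analysed by drift tube IMS-QTOF MS in about 3.95 torr nitrogen, mean of duplicate injections differing ≤1%, mass error below 10 ppm.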

## O=c1oc2ccccc2c(O)c1C(CC(O)c1ccc(-c2ccc(Br)cc2)cc1)c1ccccc1 (stereo unspecified) [Bromadiolone]
[1]
  collision cross section in nitrogen: 239.5 Å²
[2]
  collision cross section in nitrogen: 215.1 Å²

## Nc1c(S(=O)(=O)O)cc(Br)c2c1C(=O)c1ccccc1C2=O [Bromamine acid sodium salt]
[2]
  collision cross section in nitrogen: 169.2 Å²

## Cc1c(C2(c3cc(Br)c(O)c(Br)c3C)OS(=O)(=O)c3ccccc32)cc(Br)c(O)c1Br [Bromcresol green]
[2]
  collision cross section in nitrogen: 217 Å²

## CC(C)C[C@H]1C(=O)N2CCC[C@H]2[C@]2(O)O[C@](NC(=O)[C@@H]3C=C4c5cccc6[nH]c(Br)c(c56)C[C@H]4N(C)C3)(C(C)C)C(=O)N12 [Bromocriptine mesylate]
[3]
  collision cross section in nitrogen: 242.9 Å²
[4]
  collision cross section in nitrogen: 247.4 Å²
[1]
  collision cross section in nitrogen: 248.5 Å²
[2]
  collision cross section in nitrogen: 251.7 Å²

## O=S1(=O)OC(c2cc(Br)c(O)c(Br)c2)(c2cc(Br)c(O)c(Br)c2)c2ccccc21 [Bromophenol blue]
[2]
  collision cross section in nitrogen: 214.2 Å²

## N#Cc1cc(Br)c(O)c(Br)c1 [Bromoxynil]
[2]
  collision cross section in nitrogen: 131.2 Å²

## CN(C)CCC(c1ccc(Br)cc1)c1ccccn1 (stereo unspecified) [Brompheniramine hydrogen maleate]
[3]
  collision cross section in nitrogen: 167.1 Å²
[4]
  collision cross section in nitrogen: 167.8 Å²

## Clc1ccc(C2(Cn3cncn3)CC(Br)CO2)c(Cl)c1 (stereo unspecified) [Bromuconazole]
[3]
  collision cross section in nitrogen: 172.7 Å²
[4]
  collision cross section in nitrogen: 172.6 Å²

## COc1cc2c(cc1OC)[C@@]13CCN4CC5=CCO[C@H]6CC(=O)N2[C@H]1[C@H]6[C@H]5C[C@H]43 [Brucine]
[3]
  collision cross section in nitrogen: 191.3 Å²
[4]
  collision cross section in nitrogen: 194.1 Å²
[1]
  collision cross section in nitrogen: 204.6 Å²

## CCCC1O[C@@H]2C[C@H]3[C@@H]4CCC5=CC(=O)C=C[C@]5(C)[C@H]4[C@@H](O)C[C@]3(C)[C@]2(C(=O)CO)O1 (stereo partly specified) [Budesonide]
[1]
  collision cross section in nitrogen: 230.4 Å²
[2]
  collision cross section in nitrogen: 204.6 Å²

## COc1cc(OC)c(C(=O)CCCN2CCCC2)c(OC)c1 [Buflomedil hydrochloride]
[3]
  collision cross section in nitrogen: 176 Å²
[4]
  collision cross section in nitrogen: 176.1 Å²
[1]
  collision cross section in nitrogen: 178.9 Å²

## Cc1cc(-n2nc3ccc(Cl)cc3n2)c(O)c(C(C)(C)C)c1 [Bumetrizole]
[2]
  collision cross section in nitrogen: 183.2 Å²

## CCCCc1c(C)nc(NCC)nc1OS(=O)(=O)N(C)C [Bupirimate]
[3]
  collision cross section in nitrogen: 175.8 Å²
[4]
  collision cross section in nitrogen: 175.8 Å²
[1]
  collision cross section in nitrogen: 181.8 Å²
[2]
  collision cross section in nitrogen: 175.9 Å²

## CC(C)N1C(=O)N(c2ccccc2)CSC1=NC(C)(C)C [Buprofezin]
[3]
  collision cross section in nitrogen: 173.6 Å²
[4]
  collision cross section in nitrogen: 173.9 Å²
[1]
  collision cross section in nitrogen: 188 Å²

## CC(NC(C)(C)C)C(=O)c1cccc(Cl)c1 (stereo unspecified) [Bupropion hydrochloride]
[4]
  collision cross section in nitrogen: 158.6 Å²

## O=C1CC2(CCCC2)CC(=O)N1CCCCN1CCN(c2ncccn2)CC1 [Buspirone]
[3]
  collision cross section in nitrogen: 199.2 Å²
[4]
  collision cross section in nitrogen: 199.2 Å²
[1]
  collision cross section in nitrogen: 201.6 Å²
[5]
  collision cross section in nitrogen: 196.8 Å²
[2]
  collision cross section in nitrogen: 202.9 Å²

## CCCCOCN(C(=O)CCl)c1c(CC)cccc1CC [Butachlor]
[1]
  collision cross section in nitrogen: 184.4 Å²

## CC(C)N(Cc1ccccc1)C(=O)C(C)(C)C [Butam]
[3]
  collision cross section in nitrogen: 154.6 Å²
[4]
  collision cross section in nitrogen: 154.5 Å²
[1]
  collision cross section in nitrogen: 163.4 Å²

## CNC(=O)ON=C(C)C(C)S(C)(=O)=O (stereo unspecified) [Butoxycarboxim]
[1]
  collision cross section in nitrogen: 149.8 Å²

## C#CC(C)N(C)C(=O)Nc1ccc(Cl)cc1 (stereo unspecified) [Buturon]
[3]
  collision cross section in nitrogen: 152.2 Å²
[4]
  collision cross section in nitrogen: 153.7 Å²
[1]
  collision cross section in nitrogen: 166.1 Å²
[2]
  collision cross section in nitrogen: 154.6 Å²

## CCCCOC(=O)C(C)CC (stereo unspecified) [Butyl 2-methylbutyrate]
[2]
  collision cross section in nitrogen: 146.8 Å²

## CCCCCCCCCCCCCC(=O)OCCCC [Butyl myristate]
[2]
  collision cross section in nitrogen: 177.6 Å²

## CCCCOC(=O)c1ccc(O)cc1 [Butylparaben]
[2]
  collision cross section in nitrogen: 149.4 Å²

## CCCCCCOC(=O)CC(CC(=O)OCCCCCC)(OC(=O)CCC)C(=O)OCCCCCC [Butyryl-n-trihexylcitrate]
[1]
  collision cross section in nitrogen: 245.5 Å²

## CCCCCCCCCCCC[N+](C)(C)CC(=O)O [C12-14-Alkyldimethyl betaines]
Ion source: ESI, ion mode: Positive, ion type: [M]+ (permanent cation)
  collision cross section in nitrogen: 183.8 Å²

## CCN(CC)c1ccc(C(=C2C=CC(=[N+](CC)CC)C=C2)c2ccc(S(=O)(=O)O)cc2S(=O)(=O)[O-])cc1 [C.I. Acid Blue 1, sodium salt]
[4]
  collision cross section in nitrogen: 243 Å²
[1]
  collision cross section in nitrogen: 255.4 Å²

## O=[N+]([O-])c1ccc(Nc2ccc(Nc3ccccc3)c(S(=O)(=O)O)c2)c([N+](=O)[O-])c1 [C.I. Acid Orange 3]
[2]
  collision cross section in nitrogen: 204.4 Å²

## O=S(=O)(O)c1ccc(N=Nc2c(O)ccc3ccccc23)cc1 [C.I. Acid Orange 7]
[2]
  collision cross section in nitrogen: 182.7 Å²

## Cc1cc(S(=O)(=O)O)ccc1N=Nc1c(O)ccc2ccccc12 [C.I. Acid Orange 8, monosodium salt]
[2]
  collision cross section in nitrogen: 187.1 Å²

## O=S(=O)(O)c1cc(S(=O)(=O)O)c2c(N=Nc3ccccc3)c(O)ccc2c1 [C.I. Acid Orange 10]
[2]
  collision cross section in nitrogen: 192.5 Å²

## Cc1ccc(N/N=c2\c(=O)cc/c(=N/Nc3ccc(S(=O)(=O)O)cc3)c2=O)c(C)c1 [C.I. Acid Orange 24, monosodium salt]
[2]
  collision cross section in nitrogen: 221 Å²

## COc1ccc(N=Nc2cc(C)c(N=Nc3ccc(S(=O)(=O)O)cc3)cc2OC)cc1 [C.I. Acid Orange 156]
[4]
  collision cross section in nitrogen: 219.7 Å²
[2]
  collision cross section in nitrogen: 231.2 Å²

## CC(=O)Nc1cc(S(=O)(=O)O)cc2cc(S(=O)(=O)O)c(N=Nc3ccccc3)c(O)c12 [C.I. Acid Red 1]
[2]
  collision cross section in nitrogen: 210.2 Å²

## O=S(=O)(O)c1ccc(N=Nc2c(O)ccc3ccccc23)c2ccccc12 [C.I. Acid Red 88, monosodium salt]
[2]
  collision cross section in nitrogen: 193.7 Å²

## Cc1ccc(S(=O)(=O)Oc2ccc(N=Nc3ccc(-c4ccc(N=Nc5c(O)ccc6cc(S(=O)(=O)O)cc(S(=O)(=O)O)c56)c(C)c4)cc3C)cc2)cc1 [C.I. Acid Red 114]
[4]
  collision cross section in nitrogen: 319.9 Å²
[2]
  collision cross section in nitrogen: 317.8 Å²

## COc1ccccc1N=Nc1c(S(=O)(=O)O)cc2cc(S(=O)(=O)O)cc(NC(C)=O)c2c1O [C.I. Acid Violet 12, disodium salt]
[2]
  collision cross section in nitrogen: 218 Å²

## CC1=NN(c2ccc(S(=O)(=O)O)cc2)C(=O)C1N=Nc1ccccc1 (stereo unspecified) [C.I. Acid Yellow 11, sodium salt]
[2]
  collision cross section in nitrogen: 199.2 Å²

## CC1=NN(c2cc(Cl)c(S(=O)(=O)O)cc2Cl)C(=O)C1N=Nc1ccc(S(=O)(=O)O)cc1 (stereo unspecified) [C.I. Acid Yellow 17, disodium salt]
[2]
  collision cross section in nitrogen: 227.6 Å²

## CC1=NN(c2cc(S(=O)(=O)O)ccc2Cl)C(=O)C1/N=N/c1ccccc1 (stereo unspecified) [C.I. Acid Yellow 34, monosodium salt]
[4]
  collision cross section in nitrogen: 196.9 Å²
[2]
  collision cross section in nitrogen: 202.7 Å²

## Nc1ccc(N=Nc2ccccc2)c(N)c1 [C.I. Basic Orange 2]
[3]
  collision cross section in nitrogen: 150.7 Å²
[4]
  collision cross section in nitrogen: 151.2 Å²
[2]
  collision cross section in nitrogen: 149.6 Å²

## N=C1C=CC(=C(c2ccc(N)cc2)c2ccc(N)cc2)C=C1 [C.I. Basic Red 9 monohydrochloride]
[3]
  collision cross section in nitrogen: 173.3 Å²
[4]
  collision cross section in nitrogen: 174.1 Å²
[5]
  collision cross section in nitrogen: 173.7 Å²
[2]
  collision cross section in nitrogen: 177.9 Å²

## Nc1ccc(N=Nc2ccc(-c3ccc(N=Nc4c(S(=O)(=O)O)cc5cc(S(=O)(=O)O)c(N=Nc6ccccc6)c(O)c5c4N)cc3)cc2)c(N)c1 [C.I. Direct Black 38]
[4]
  collision cross section in nitrogen: 311 Å²
[2]
  collision cross section in nitrogen: 304.4 Å²

## O=C(Nc1ccc2c(O)c(N=Nc3ccc(N=Nc4ccc(S(=O)(=O)O)cc4)cc3)c(S(=O)(=O)O)cc2c1)c1ccccc1 [C.I. Direct Red 81 disodium salt]
[4]
  collision cross section in nitrogen: 276.7 Å²
[2]
  collision cross section in nitrogen: 283.1 Å²

## CCOc1ccc(N=Nc2ccc(C=Cc3ccc(N=Nc4ccc(OCC)cc4)cc3S(=O)(=O)O)c(S(=O)(=O)O)c2)cc1 [C.I. Direct Yellow 12]
[4]
  collision cross section in nitrogen: 278.7 Å²
[1]
  collision cross section in nitrogen: 286.9 Å²
[2]
  collision cross section in nitrogen: 279.3 Å²

## COc1cc(-c2ccc(N)c(OC)c2)ccc1N [C.I. Disperse Black 6 dihydrochloride]
[3]
  collision cross section in nitrogen: 169.7 Å²
[4]
  collision cross section in nitrogen: 169.9 Å²
[5]
  collision cross section in nitrogen: 156.1 Å²

## COc1cc(-c2ccc(N)c(OC)c2)ccc1N [C.I. Disperse Black 6]
[3]
  collision cross section in nitrogen: 170.4 Å²
[4]
  collision cross section in nitrogen: 170 Å²
[5]
  collision cross section in nitrogen: 156.6 Å²

## CNc1ccc(NCCO)c2c1C(=O)c1ccccc1C2=O [C.I. Disperse Blue 3]
[3]
  collision cross section in nitrogen: 167.2 Å²
[4]
  collision cross section in nitrogen: 167.5 Å²

## O=C1c2c(O)ccc(Nc3ccc(CCO)cc3)c2C(=O)c2c([N+](=O)[O-])ccc(O)c21 [C.I. Disperse Blue 27]
[1]
  collision cross section in nitrogen: 189.9 Å²
[2]
  collision cross section in nitrogen: 201.7 Å²

## CCN(CCC#N)c1ccc(N=Nc2ccc([N+](=O)[O-])cc2)cc1 [C.I. Disperse Orange 25]
[3]
  collision cross section in nitrogen: 188.5 Å²
[4]
  collision cross section in nitrogen: 188.8 Å²
[1]
  collision cross section in nitrogen: 189.8 Å²

## CCN(CCC#N)c1ccc(N=Nc2c(Cl)cc([N+](=O)[O-])cc2Cl)cc1 [C.I. Disperse Orange 37]
[3]
  collision cross section in nitrogen: 197.8 Å²
[4]
  collision cross section in nitrogen: 197.9 Å²

## Nc1c(Oc2ccccc2)cc(O)c2c1C(=O)c1ccccc1C2=O [C.I. Disperse Red 60]
[3]
  collision cross section in nitrogen: 177.7 Å²
[4]
  collision cross section in nitrogen: 178 Å²
[5]
  collision cross section in nitrogen: 172.6 Å²
[2]
  collision cross section in nitrogen: 175.8 Å²

## CC(=O)Nc1ccc(N=Nc2cc(C)ccc2O)cc1 [C.I. Disperse Yellow 3]
[3]
  collision cross section in nitrogen: 167.8 Å²
[4]
  collision cross section in nitrogen: 168.2 Å²
[2]
  collision cross section in nitrogen: 168.7 Å²

## O=C1c2ccccc2C(=O)C1c1nc2ccccc2c(Br)c1O [C.I. Disperse Yellow 64]
[3]
  collision cross section in nitrogen: 167.5 Å²
[2]
  collision cross section in nitrogen: 171.5 Å²
